Patent US20080090278A1, “METHOD FOR ENHANCING STABILITY OF A COMPOSITION COMPRISING SOLUBLE GLUCOSE DEHYDROGENASE (GDH)” (TOYO BOSEKI KABUSHIKI KAISHA, priority 2006, published 2008)
Each block holds one compound with its values, some of them ahead of it.

Assays:
[1] = test system: recombinant FAD-GDH (rAT-FAD-GDH) derived from Aspergillus terreus; test: Thermal stabilization effect of stabilizing agents on rAT-FAD-GDH in solution (Example 9); type: physicochemical; settings: for Residual activity ratio (%) / GLD activity value (U/ml) 50° C., 15 min: Table 10, buffer 50 mM K-PB, stabilizer at each final concentration described in Table 1; for Residual activity ratio (%): 50° C., 15 min versus 4° C.; for thermal stabilization effect on FAD-GDH (in words): rAT-FAD-GDH, 50° C. for 15 minutes, Example 9
Description: (§1) The reaction reagent (3 mL) is preliminarily heated at 37° C. for 5 minutes. The GDH solution (0.1 mL) is added and gently mixed, subsequently the change of absorbance at 600 nm is recorded for 5 minutes using the spectrophotometer controlled to 37° C. using water as the control, and the change of absorbance per one minute (ΔODTEST) is calculated from the linear portion of the record. The solvent in which GDH will be dissolved in place of the blinded GDH solution is added to the reagent mixture, and the change of absorbance (ΔODBLANK) per one minute is measured. The GDH activity is calculated from these values according to the following formula. One unit (U) in the GDH activity is defined as the amount of the enzyme which reduces […] DCPIP for one minute in the presence of 200 mM D-glucose.
Two tubes in which each stabilizing agent described in Table 1 had been added at each final concentration to 0.9 mL of this enzyme solution to make the total volume 1.0 mL were prepared.
(§2) In two tubes, one tube was stored at 4° C. and another tube was treated at 50° C. for 15 minutes. Then, the FAD-GDH activity in each tube was measured. The enzyme activity in the tube stored at 4° C. was made 100, and comparing with it, the activity value after being treated at 50° C. for 15 minutes was calculated as the residual activity ratio (%).

[2] = test system: recombinant FAD-GDH (rAO-FAD-GDH) derived from Aspergillus oryzae; test: Thermal stabilization effect of stabilizing agents on rAO-FAD-GDH in solution (Examples 3-6); type: physicochemical; settings: for thermal stabilization effect on FAD-GDH (in words): 50° C. for 15 minutes, Example 3
Description: Enhancement of the thermal stability referred to herein means increasing of a residual ratio (%) of the GDH enzyme kept after giving the treatment with heat at a certain temperature for a certain time period to the composition comprising the GDH enzyme. In the present invention, the activity in the sample stored at 4° C. which is nearly completely kept is made 100%, this is compared with the activity in the GDH solution after giving the treatment with heat at a certain-temperature for a certain time period, and the residual ratio of the enzyme is calculated.
In the method for measuring the activity described in the method for measuring the GDH enzyme activity described later, an activity value (a) of GDH in the solution stored at 4° C. and an activity value (b) of GDH after giving the treatment with heat at a certain temperature for a certain time period were measured, a relative value[(b)/(a)×100] when the activity value (a) was made 100 was calculated. This relative value was made the residual ratio (%). Comparing the presence with the absence of the added compound, when the residual ratio was increased by the addition of the compound, it was determined that the thermal stability was enhanced.
In the present invention, the activity of FAD-dependent GDH is measured as follows.
The reaction-reagent is made by mixing 15.6 mL of the PIPES buffer, 0.2 mL of the DCPIP solution and 4 mL of the D-glucose solution.
as §1, with “D-glucose. Activity (U/mL)=[−(ΔODTEST−ΔODBLANK)×3.0×dilution scale]/(16.3×0.1×1.0) In the above formula, 3.0 represents a liquid amount (mL) of the reaction reagent+the enzyme solution, 16.3 represents a millimolar molecular absorbance coefficient (cm^2/μmol) in the condition for measuring this enzyme, 0.1 represents the liquid amount of the enzyme solution (mL) and 1.0 represents a light path length (cm) of the cell.” for “D-glucose.”
The study was performed in accordance with the method for measuring the FAD-GDH activity in Test Example 1 described above.
First, 50 mL of an enzyme solution obtained by dissolving the recombinant FAD-GDH (rAO-FAD-GDH)-derived from Aspergillus oryzae obtained in Example 1 at about 2 U/mL in an enzyme dilution solution (50 mM potassium phosphate buffer, pH 5.5, 0.1% Triton X-100) was prepared. Two tubes in which each stabilizing agent described in Table 1 had been added at each final concentration to 0.9 mL of this enzyme solution to make the total volume 1.0 mL were prepared.
as §2, with “stored at […] and” for “stored at 4° C. and”
The method was in accordance with Example 3 described above.
The methods were in accordance with Example 3 above.

[3] = stabilizer final concentration 1%, rAO-FAD-GDH about 2 U/mL, 50 mM potassium phosphate buffer pH 5.5, 0.1% Triton X-100, 4° C. sample = 100
[4] = stabilizer final concentration 0.10%, rAO-FAD-GDH, pH 5.5
[5] = stabilizer final concentration 0.25%, rAO-FAD-GDH, pH 5.5

Structure (SMILES): NCCS(=O)(=O)O [Taurine]
Residual activity ratio (%) [1]: 3.2%
GLD activity value (U/ml) 50° C., 15 min [1]: 0.081 U/ml
thermal stabilization effect on FAD-GDH (in words) [1]: high effect
thermal stabilization effect on FAD-GDH (in words) ([2]; rAO-FAD-GDH): high effect
Residual activity ratio (%) after treatment at 50° C., 15 min [2, 3]: 23.8%

Structure (SMILES): N[C@@H](Cc1ccccc1)C(=O)O [L-phenylalanine]
Residual activity ratio (%) [1]: 1.2%
GLD activity value (U/ml) 50° C., 15 min [1]: 0.031 U/ml
Residual activity ratio (%) after treatment at 50° C., 15 min ([2]; stabilizer final concentration 0.20%, rAO-FAD-GDH, pH 5.5): 22.3%

Structure (SMILES): N[C@@H](CC(=O)O)C(=O)O [L-aspartic acid]
Residual activity ratio (%) [1]: 0.2%
GLD activity value (U/ml) 50° C., 15 min [1]: 0.005 U/ml
Residual activity ratio (%) after treatment at 50° C., 15 min [2, 3]: 12.2%

Structure (SMILES): [Cl-].[Na+] [Sodium chloride]
thermal stabilization effect on FAD-GDH (in words) [1]: high effect
thermal stabilization effect on FAD-GDH (in words) ([2]; rAO-FAD-GDH): high effect

Structure (SMILES): O=C(O)[C@@H]1CCCN1 [proline]
thermal stabilization effect on FAD-GDH (in words) [1]: high effect
thermal stabilization effect on FAD-GDH (in words) ([2]; rAO-FAD-GDH): high effect

Structure (SMILES): OC[C@H]1O[C@@H]2O[C@H]3[C@H](O)[C@@H](O)[C@@H](O[C@H]4[C@H](O)[C@@H](O)[C@@H](O[C@H]5[C@H](O)[C@@H](O)[C@@H](O[C@H]6[C@H](O)[C@@H](O)[C@@H](O[C@H]7[C@H](O)[C@@H](O)[C@@H](O[C@H]1[C@H](O)[C@H]2O)O[C@@H]7CO)O[C@@H]6CO)O[C@@H]5CO)O[C@@H]4CO)O[C@@H]3CO [a-cyclodextrin]
Residual activity ratio (%) [1]: 1.5%
GLD activity value (U/ml) 50° C., 15 min [1]: 0.044 U/ml
Residual activity ratio (%) after treatment at 50° C., 15 min [2, 3]: 44.1%

Structure (SMILES): O=C1O[C@H](CO)[C@@H](O)[C@H](O)[C@H]1O [Glucono-1,5-lactone]
Residual activity ratio (%) [1]: 0.1%
GLD activity value (U/ml) 50° C., 15 min [1]: 0.003 U/ml
Residual activity ratio (%) after treatment at 50° C., 15 min [2, 3]: 0.0%

Structure (SMILES): N[C@@H](Cc1c[nH]c2ccccc12)C(=O)O [L-triptophan]
Residual activity ratio (%) [1]: 1.3%
GLD activity value (U/ml) 50° C., 15 min [1]: 0.034 U/ml
Residual activity ratio (%) after treatment at 50° C., 15 min [2, 4]: 24.3%

Structure (SMILES): OC[C@H]1O[C@H](OCC2O[C@@H](O)[C@H](O)[C@@H](O)[C@@H]2O)[C@H](O)[C@@H](O)[C@H]1O (stereo partly drawn) [a-D-(+)-melibiose]
Residual activity ratio (%) [1]: 7.3%
GLD activity value (U/ml) 50° C., 15 min [1]: 0.197 U/ml
thermal stabilization effect on FAD-GDH (in words) [1]: high effect
thermal stabilization effect on FAD-GDH (in words) ([2]; rAO-FAD-GDH): high effect
Residual activity ratio (%) after treatment at 50° C., 15 min [2, 3]: 59.0%

Structure (SMILES): OC[C@H]1O[C@@](CO)(O[C@H]2O[C@H](CO)[C@@H](O)[C@H](O)[C@H]2O)[C@@H](O)[C@@H]1O [Sucrose]
Residual activity ratio (%) [1]: 2.1%
GLD activity value (U/ml) 50° C., 15 min [1]: 0.058 U/ml
thermal stabilization effect on FAD-GDH (in words) [1]: high effect
thermal stabilization effect on FAD-GDH (in words) ([2]; rAO-FAD-GDH): high effect
Residual activity ratio (%) after treatment at 50° C., 15 min [2, 3]: 44.1%

Structure (SMILES): CO[C@H]1O[C@H](CO)[C@@H](O)[C@H](O)[C@H]1O [Methyl-a-D-glucoside]
Residual activity ratio (%) [1]: 9.4%
GLD activity value (U/ml) 50° C., 15 min [1]: 0.267 U/ml
thermal stabilization effect on FAD-GDH (in words) [1]: high effect
thermal stabilization effect on FAD-GDH (in words) ([2]; rAO-FAD-GDH): high effect
Residual activity ratio (%) after treatment at 50° C., 15 min [2, 3]: 53.6%

Structure (SMILES): O=C(O)[C@@H]1CCCN1 [L-(−)-proline]
Residual activity ratio (%) [1]: 1.8%
GLD activity value (U/ml) 50° C., 15 min [1]: 0.048 U/ml
Residual activity ratio (%) after treatment at 50° C., 15 min [2, 3]: 25.2%

Structure (SMILES): O=C(O)[C@H]1CCCN1 [D-proline]
Residual activity ratio (%) [1]: 2.8%
GLD activity value (U/ml) 50° C., 15 min [1]: 0.079 U/ml
Residual activity ratio (%) after treatment at 50° C., 15 min [2, 3]: 24.8%

Structure (SMILES): N[C@@H](CC(=O)[O-])C(=O)[O-].[Na+].[Na+] [Sodium L-aspartate]
Residual activity ratio (%) [1]: 3.7%
GLD activity value (U/ml) 50° C., 15 min [1]: 0.102 U/ml
thermal stabilization effect on FAD-GDH (in words) [1]: high effect
thermal stabilization effect on FAD-GDH (in words) ([2]; rAO-FAD-GDH): high effect
Residual activity ratio (%) after treatment at 50° C., 15 min [2, 3]: 23.0%

Structure (SMILES): N[C@H](Cc1ccccc1)C(=O)O [D-phenylalanine]
Residual activity ratio (%) [1]: 2.3%
GLD activity value (U/ml) 50° C., 15 min [1]: 0.062 U/ml
Residual activity ratio (%) after treatment at 50° C., 15 min [2, 4]: 23.6%

Structure (SMILES): O=C([O-])CC(O)(CC(=O)[O-])C(=O)[O-].[Na+].[Na+].[Na+] [Trisodium citrate]
thermal stabilization effect on FAD-GDH (in words) [1]: high effect
thermal stabilization effect on FAD-GDH (in words) ([2]; rAO-FAD-GDH): high effect

The next lines start with results.

Residual activity ratio (%) [1]: 10.0%
thermal stabilization effect on FAD-GDH (in words) [1]: high effect
thermal stabilization effect on FAD-GDH (in words) ([2]; rAO-FAD-GDH): high effect
Residual activity ratio (%) after treatment at 50° C., 15 min [2, 3]: 56.2%
Structure (SMILES): O=C[C@H](O)[C@@H](O)[C@H](O)[C@H](O)C(=O)[O-].[Na+] [D-sodium glucuronate]
GLD activity value (U/ml) 50° C., 15 min [1]: 0.279 U/ml

Residual activity ratio (%) [1]: 3.0%
thermal stabilization effect on FAD-GDH (in words) [1]: high effect
thermal stabilization effect on FAD-GDH (in words) ([2]; rAO-FAD-GDH): high effect
Residual activity ratio (%) after treatment at 50° C., 15 min [2, 3]: 25.2%
Structure (SMILES): CNCC(=O)O [Sarcosine]
GLD activity value (U/ml) 50° C., 15 min [1]: 0.081 U/ml

thermal stabilization effect on FAD-GDH (in words) [1]: high effect
thermal stabilization effect on FAD-GDH (in words) ([2]; rAO-FAD-GDH): high effect
Structure (SMILES): O=C(O)CCC(=O)O [Succinic acid]

Residual activity ratio (%) [1]: 1.6%
Residual activity ratio (%) after treatment at 50° C., 15 min ([2]; stabilizer final concentration 0.50%, rAO-FAD-GDH, pH 5.5): 25.5%
Structure (SMILES): CC(C)[C@H](N)C(=O)O [L-valine]
GLD activity value (U/ml) 50° C., 15 min [1]: 0.043 U/ml

thermal stabilization effect on FAD-GDH (in words) [1]: high effect
thermal stabilization effect on FAD-GDH (in words) ([2]; rAO-FAD-GDH): high effect
Structure (SMILES): O=C(O)CC(=O)O [Malonic acid]

Residual activity ratio (%) [1]: 17.2%
thermal stabilization effect on FAD-GDH (in words) [1]: high effect
thermal stabilization effect on FAD-GDH (in words) ([2]; rAO-FAD-GDH): high effect
Residual activity ratio (%) after treatment at 50° C., 15 min [2, 3]: 60.6%
Structure (SMILES): O=C[C@H](O)[C@@H](O)[C@@H](O)[C@H](O)CO [Galactose]
GLD activity value (U/ml) 50° C., 15 min [1]: 0.495 U/ml

Residual activity ratio (%) [1]: 0.5%
Residual activity ratio (%) after treatment at 50° C., 15 min [2, 5]: 11.4%
Structure (SMILES): N[C@@H](Cc1c[nH]cn1)C(=O)O [L-histidine]
GLD activity value (U/ml) 50° C., 15 min [1]: 0.015 U/ml

Residual activity ratio (%) [1]: 2.5%
thermal stabilization effect on FAD-GDH (in words) [1]: high effect
thermal stabilization effect on FAD-GDH (in words) ([2]; rAO-FAD-GDH): high effect
Residual activity ratio (%) after treatment at 50° C., 15 min [2, 3]: 26.7%
Structure (SMILES): OC[C@@H](O)[C@H]1OC[C@H](O)[C@H]1O [1,4-sorbitane]
GLD activity value (U/ml) 50° C., 15 min [1]: 0.072 U/ml

Residual activity ratio (%) [1]: 1.7%
Residual activity ratio (%) after treatment at 50° C., 15 min [2, 5]: 23.4%
Structure (SMILES): CC[C@H](C)[C@H](N)C(=O)O (racemic) [DL-isoleucine]
GLD activity value (U/ml) 50° C., 15 min [1]: 0.047 U/ml
